Patent publication US20110289042A1, “Integrative Framework for Three-Stage Integrative Pathway Search” (BOARD OF TRUSTEES OF MICHAGN STATE UNIVERSITY, priority 2005, published 2011)
Like-named read-outs stand apart in the source and are kept apart here.

What was measured:
Assay type in all cases: cell-based, human
phospho-P65 NF-κB = phospho-P65 NF-κB by western blot in HepG2 cells
Method: Therefore, we tested the possibility of this link in HepG2 cells by adding rottlerin, an inhibitor of PKC-δ, and measuring the protein expression and activity levels of NF-κB with western blots. […] This confirmed the connection between TNF-α and PKC-δ in the reconstructed network (model). To determine whether PKC-δ is involved in mediating the activation of NF-κB by TNF-α, PKC-δ was inhibited by a PKC-δ specific inhibitor rottlerin. The activity of NF-κB was measured with western blots by detecting the levels of phosphorylated NF-κB p65 at serine 536 [Sakurai et al. 2003]. As shown in FIG. 6(A), the activation of NF-κB p65 was attenuated by rottlerin. […] Therefore, PKC-δ was appropriately identified by the model to be an important factor in mediating the TNF-α signaling pathway.
PKC-δ was inhibited with rottlerin (BIOMOL Research Laboratories, Plymouth Meeting, Pa.). […] After 48 hours of exposure, cells were lysated with 1× SDS sample buffer. After ultrasonication for 11-15 seconds, the suspension was centrifuged (10,000 relative centrifugal force (rcf), 5 minutes). The supernatant was run on 7.5% gradient SDS-PAGE, transferred to a nitrocellulose membrane, blocked for 1 hour at room temperature with 5% milk protein solution in Tris buffered saline with Tween 20, and exposed to monoclonal anti-phospho NF-κB (65 kDa subunit) (Cell Signaling Technology Inc., MA) at 1:2000 dilution overnight at 4° C. The blot was washed and put in rabbit anti-mouse IgG secondary antibody (1:2000 dilution in TBS-Tween) for 1 hour. The blot was washed thrice each in TBS-Tween and TBS and developed using Supersignal West Femto Substrate (Pierce Chemicals), and imaged with Bio-Rad imager.
Bcl-2 was inhibited with HA14-1 (BIOMOL Research Laboratories, Plymouth Meeting, Pa.) at 10 μM. The phospho-NF-κB p65 was detected with monoclonal anti-phospho NF-κB (65 kDa subunit) (Cell Signaling Technology Inc., Danvers, Mass., US) at 1:2000 dilution.

Hep G2/C3A cells = test system: Hep G2/C3A cells
Method: Cell Culture. 1 million Hep G2/C3A cells (ATCC, Manassas, Va.) were seeded into each well of 6-well culture plate. The cells were kept in 2 mL of medium containing Dulbecco's modified Eagles medium (Invitrogen, Carlsbad, Calif.) supplemented with 10% fetal bovine serum (ATCC) and 2% Penicillin-streptomycin (Invitrogen). Cells were incubated at 37° C. and in 10% CO2 atmosphere. After cells reached confluence, the medium was replaced with 2 mL of treatment of FFA including palmitate (700 μM), oleate (700 μM), linoleate (700 μM) and TNF-α (0, 20, 100 ng/mL′)
Cytotoxicity measurement. […] Cells were washed with phosphate buffered saline (PBS) and kept in 1% Triton-X-100 in PBS for 24 h at 37° C. Cell lysate was then collected, vortexed for 15 seconds, and centrifuged at 7000 rpm for 5 minutes. Cytotoxicity detection kit (Roche Applied Science, Indianapolis, Ind.) was used to measure the LDH release. LDH released was normalized to the total LDH (released+lyzed).

[1] = test system: stearoyl-CoA desaturase (SCD); experiment: SCD protein expression by western blot in HepG2 cells
Method: The protein expression level of SCD in HepG2 cells cultured in control (HepG2 medium), palmitate, oleate, palmitate+oleate, mediums were measured as a function of TNF-α with western blots.

Bcl-2 = Bcl-2 protein expression by western blot in HepG2 cells
Method: Cells cultured in mediums of HepG2, Palmitate, Oleate, Palmitate (400 μM)+Oleate medium (300 μM) were lysated as described before. The protein samples were run on 10-20% gradient SDS-PAGE. Bcl-2 was probed with Bcl-2 antibody (1:1000) (Cell Signaling Technology, Inc., Danvers, Mass., US) as the primary antibody and goat anti-rabbit IgG as the second antibody at 1:1000 dilution.

PKC-δ = PKC-δ expression by western blot in HepG2 cells; conditions: TNF-α 20 and 100 ng/mL; control, palmitate and oleate cultures
Method: PKC-δ Inhibiting Analysis. The levels of PKC-δ in HepG2, palmitate (700 μM), oleate (700 μM) and palmitate (400 μM)+oleate medium (300 μM) with TNF-α supplementation of 0, 20, 100 ng/mL were detected with western blotting using anti-PKC-δ antibody (Santa Cruz Biotechnology, Inc., Santa Cruz, Calif., US) at 1:2000 dilution.

SCD gene expression = SCD gene expression by cDNA microarray in HepG2 cells; conditions: TNF-α in HepG2 cells; log 2(treatment/control)
Method: Gene expression profiling. Cells were cultured in 10 cm tissue culture plates until confluence and then exposed to different treatments. RNA was isolated with Trizol reagent. The gene expression profiling was obtained with cDNA microarray. Analyses were done at the Van Andel Institute, Grand Rapids, Mich. The protocols are available online at (http://microarray.vai.org/protocols/). There were two biological replicates for each condition and each replicate was measured with the Cy3 and Cy5 dyes.

In the case of `CCOC(=O)C1=C(N)Oc2ccc(Br)cc2C1C(C#N)C(=O)OCC` (stereo not shown) [HA14-1], the “activation of phospho-P65 NF-κB” value (phospho-P65 NF-κB; 10 μM, control, palmitate, oleate and palmitate+oleate co-supplementation cultures) is reported as “attenuated the activation of phospho-P65 NF-κB”.

With `CC(=O)N[C@@H](CS)C(=O)O` [N-acetyl cysteine] the “LDH release in palmitate culture” value (Hep G2/C3A cells; co-supplementation of 10 mM) was “reduced LDH release” and the “SCD protein expression in palmitate culture” value ([1]; co-supplementation of 10 mM) was “prevented the SCD down-regulation”.

`O=C1Nc2ccc3ncsc3c2/C1=C/c1cnc[nH]1` [PKR inhibitor] was tested, and the LDH release (Hep G2/C3A cells; PKR inhibitor 6 μM in control culture medium, 3% without inhibitor) was 25% and the Bcl-2 expression (Bcl-2; 6 μM in culture medium of control) was “decreased the Bcl-2 expression”.

For `CC(C)(Oc1ccc(C2CC2(Cl)Cl)cc1)C(=O)O` (stereo not shown) [ciprofibrate], the “LDH release in palmitate culture” value (Hep G2/C3A cells; 6 hours pretreatment followed by 48 hours co-supplementation of 50 μM, palmitate culture) was “significantly decrease LDH release”.

With `CC(=O)c1c(O)c(C)c(O)c(Cc2c(O)c3c(c(C(=O)/C=C/c4ccccc4)c2O)OC(C)(C)C=C3)c1O` [rottlerin] the “increase of LDH release in the palmitate cultures” value (Hep G2/C3A cells; rottlerin added to palmitate cultures) was “up to 25%” and the “TNF-α-induced activation of phospho-P65 NF-κB” value (phospho-P65 NF-κB; rottlerin 5 μM, 0, 20 or 100 ng/mL TNF-α) was “this activation was attenuated”.

For TNF-α, the cytotoxicity (Hep G2/C3A cells) was “cytotoxic”, the “LDH release in control culture” value (Hep G2/C3A cells; TNF-α in control culture) was “did not affect LDH release” and the cytotoxicity (Hep G2/C3A cells; record 2) was “cytoprotective”. The SCD protein expression ([1]; TNF-α, control, oleate and co-supplementation cultures) was “decreased the expression of SCD”, the “phospho-P65 NF-κB” value (phospho-P65 NF-κB; TNF-α 0, 20 or 100 ng/mL) was “activated phospho-P65 NF-κB” and the Bcl-2 expression (Bcl-2; TNF-α 20-100 ng/mL, control, palmitate and oleate cultures) was “down-regulated”. For the same molecule, the “expression of PKC-δ 41 kDa catalytically active fragment” value (PKC-δ) was “increased” and the “gene expression of SCD” value (SCD gene expression) was “upregulated”.
